Data taken from ChEMBL document CHEMBL4507298 (2021).

Columns and labels:
[1] = target: 5-hydroxytryptamine receptor 1B (Homo sapiens) (UniProt P28222); experiment: 5-HT1B CEREP ligand profiling; details: Compound concentration 10.0 uM
[2] = target: Mitogen-activated protein kinase 14 (Homo sapiens) (UniProt Q16539); experiment: p38 alpha kinase (h) CEREP ligand profiling; details: Compound concentration 10.0 uM
[3] = target: Tumor necrosis factor (Homo sapiens) (UniProt P01375); experiment: TNF-alpha (h) CEREP ligand profiling; details: Compound concentration 10.0 uM
[4] = target: Adrenergic receptor alpha-1 (Homo sapiens) (UniProt P35348+P25100+P35368); experiment: alpha 1 (non- selective) CEREP ligand profiling; type: protein assay; details: Compound concentration 10.0 uM
[5] = target: Dual specificity tyrosine-phosphorylation-regulated kinase 2 (Homo sapiens) (UniProt Q92630); details: Compound concentration 1000.0 nM
[6] = target: Serine/threonine-protein kinase 38 (Homo sapiens) (UniProt Q15208); details: Compound concentration 1000.0 nM
[7] = target: Adenosine receptor A2a (Homo sapiens) (UniProt P29274); experiment: A2A (h) CEREP ligand profiling; details: Compound concentration 10.0 uM
[8] = target: Mitogen-activated protein kinase kinase kinase 7 (Homo sapiens) (UniProt O43318); details: Compound concentration 1000.0 nM
[9] = target: Glutamate [NMDA] receptor (Homo sapiens) (UniProt Q05586+Q12879+Q13224+O15399+O60391+Q14957+Q8TCU5); experiment: NMDA CEREP ligand profiling; type: protein-complex assay; details: Compound concentration 10.0 uM
[10] = target: Glucocorticoid receptor (Homo sapiens) (UniProt P04150); experiment: GR (h) CEREP ligand profiling; details: Compound concentration 10.0 uM
[11] = target: Ephrin type-A receptor 5 (Homo sapiens) (UniProt P54756); details: Compound concentration 1000.0 nM
CYP2C9 = CYP2C9 (Homo sapiens, UniProt P11712); experiment: CYP2C9 inhibition CEREP ligand profiling; details: compound concentration 10 uM
[12] = target: Protein-tyrosine kinase 6 (Homo sapiens) (UniProt Q13882); details: Compound concentration 1000.0 nM
[13] = target: Calcium/calmodulin-dependent protein kinase type IV (Homo sapiens) (UniProt Q16566); details: Compound concentration 1000.0 nM
[14] = target: STE20/SPS1-related proline-alanine-rich protein kinase (Homo sapiens) (UniProt Q9UEW8); details: Compound concentration 1000.0 nM
[15] = target: Melanocyte-stimulating hormone receptor (Homo sapiens) (UniProt Q01726); experiment: MC1 CEREP ligand profiling; details: Compound concentration 10.0 uM
[16] = target: 5-hydroxytryptamine receptor 7 (Homo sapiens) (UniProt P34969); experiment: 5-HT7 (h) CEREP ligand profiling; details: Compound concentration 10.0 uM
[17] = target: Histamine H2 receptor (Homo sapiens) (UniProt P25021); experiment: H2 (h) CEREP ligand profiling; details: Compound concentration 10.0 uM
[18] = target: D(2) dopamine receptor (Homo sapiens) (UniProt P14416); experiment: D2S (h) CEREP ligand profiling; details: Compound concentration 10.0 uM
[19] = target: Sodium-dependent noradrenaline transporter (Homo sapiens) (UniProt P23975); experiment: NE transporter (h) CEREP ligand profiling; details: Compound concentration 10.0 uM
[20] = tested on: Epidermal growth factor receptor (Homo sapiens), P00533 [UNDEFINED MUTATION]; details: Compound concentration 1000.0 nM
[21] = tested on: Phosphatidylinositol 4,5-bisphosphate 3-kinase catalytic subunit alpha isoform (Homo sapiens), P42336 [I800L]; details: Compound concentration 1000.0 nM
[22] = target: Peripheral plasma membrane protein CASK (Homo sapiens) (UniProt O14936); details: Compound concentration 1000.0 nM
[23] = target: Cyclin-dependent kinase 8 (Homo sapiens) (UniProt P49336); details: Compound concentration 1000.0 nM
[24] = target: Ribosomal protein S6 kinase alpha-6 (Homo sapiens) (UniProt Q9UK32); details: Compound concentration 1000.0 nM
[25] = target: Cyclin-dependent kinase 4 (Homo sapiens) (UniProt P11802); details: Compound concentration 1000.0 nM
[26] = target: Tyrosine-protein kinase Lyn (Homo sapiens) (UniProt P07948); details: Compound concentration 1000.0 nM
[27] = target: 5-hydroxytryptamine receptor 7 (Homo sapiens) (UniProt P34969); details: Compound concentration 10.0 uM
[28] = target: Ribosomal protein S6 kinase alpha-6 (Homo sapiens) (UniProt Q9UK32); details: Compound concentration 1000.0 nM; remark: listed apart in the source
[29] = target: 5-hydroxytryptamine receptor 1D (Homo sapiens) (UniProt P28221); experiment: 5-HT1D CEREP ligand profiling; details: Compound concentration 10.0 uM
[30] = target: Serine/threonine-protein kinase PknB (Mycobacterium tuberculosis) (UniProt P9WI81); details: Compound concentration 1000.0 nM
[31] = tested on: Tyrosine-protein kinase ABL1 (Homo sapiens), P00519 [Q252H]; details: Compound concentration 1000.0 nM
[32] = target: Matrix metalloproteinase-9 (Homo sapiens) (UniProt P14780); experiment: MMP-9 (h) CEREP ligand profiling; details: Compound concentration 10.0 uM
[33] = target: Tyrosine-protein kinase ZAP-70 (Homo sapiens) (UniProt P43403); details: Compound concentration 1000.0 nM
[34] = target: Ephrin type-B receptor 4 (Homo sapiens) (UniProt P54760); details: Compound concentration 1000.0 nM
[35] = target: Mu-type opioid receptor (Homo sapiens) (UniProt P35372); details: Compound concentration 10.0 uM
[36] = target: T1, Alpha-2B adrenergic receptor (Homo sapiens) (UniProt P18089); experiment: alpha 2B (h) CEREP ligand profiling; details: Compound concentration 10.0 uM
T1 sequence (whole entry): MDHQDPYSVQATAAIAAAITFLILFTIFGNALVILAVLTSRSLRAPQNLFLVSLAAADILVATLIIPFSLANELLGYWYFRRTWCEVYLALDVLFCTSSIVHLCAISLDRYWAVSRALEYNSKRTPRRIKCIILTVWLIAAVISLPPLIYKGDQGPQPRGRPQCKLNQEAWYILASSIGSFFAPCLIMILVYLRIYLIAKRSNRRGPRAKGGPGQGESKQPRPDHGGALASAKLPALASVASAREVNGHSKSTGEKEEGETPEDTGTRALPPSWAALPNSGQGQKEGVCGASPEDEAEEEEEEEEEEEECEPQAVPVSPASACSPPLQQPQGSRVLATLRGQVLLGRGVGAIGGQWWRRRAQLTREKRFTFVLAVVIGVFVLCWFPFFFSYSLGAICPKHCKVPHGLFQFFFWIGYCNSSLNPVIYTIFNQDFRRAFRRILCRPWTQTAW

[37] = target: SRSF protein kinase 2 (Homo sapiens) (UniProt P78362); details: Compound concentration 1000.0 nM
[38] = target: MAO-A (Amine oxidase [flavin-containing] A) (Homo sapiens, UniProt P21397); experiment: MAO-A CEREP ligand profiling; details: compound concentration 10 uM

Chain of Ribosomal protein S6 kinase alpha-6 (Homo sapiens) (Q9UK32 whole entry): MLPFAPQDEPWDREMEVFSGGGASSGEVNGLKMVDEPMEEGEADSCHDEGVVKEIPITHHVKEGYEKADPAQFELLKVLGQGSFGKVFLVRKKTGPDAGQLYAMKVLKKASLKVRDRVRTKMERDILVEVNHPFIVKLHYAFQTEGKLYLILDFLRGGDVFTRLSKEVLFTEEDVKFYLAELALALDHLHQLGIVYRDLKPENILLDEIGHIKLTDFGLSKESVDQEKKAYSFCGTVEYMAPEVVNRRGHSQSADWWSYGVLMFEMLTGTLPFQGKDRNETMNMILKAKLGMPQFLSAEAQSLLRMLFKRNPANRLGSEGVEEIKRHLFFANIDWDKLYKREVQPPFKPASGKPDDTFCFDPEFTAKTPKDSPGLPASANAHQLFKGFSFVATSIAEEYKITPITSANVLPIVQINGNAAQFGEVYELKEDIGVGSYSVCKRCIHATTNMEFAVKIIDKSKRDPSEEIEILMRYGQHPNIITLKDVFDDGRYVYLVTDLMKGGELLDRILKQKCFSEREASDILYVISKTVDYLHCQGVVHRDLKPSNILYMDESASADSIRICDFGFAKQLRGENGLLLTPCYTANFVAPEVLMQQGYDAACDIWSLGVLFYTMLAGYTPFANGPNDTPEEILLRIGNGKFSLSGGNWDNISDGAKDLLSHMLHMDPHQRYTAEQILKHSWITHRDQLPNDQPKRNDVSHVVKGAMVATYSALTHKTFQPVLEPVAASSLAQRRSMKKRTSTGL
Chain of 5-hydroxytryptamine receptor 7 (Homo sapiens) (P34969 whole entry): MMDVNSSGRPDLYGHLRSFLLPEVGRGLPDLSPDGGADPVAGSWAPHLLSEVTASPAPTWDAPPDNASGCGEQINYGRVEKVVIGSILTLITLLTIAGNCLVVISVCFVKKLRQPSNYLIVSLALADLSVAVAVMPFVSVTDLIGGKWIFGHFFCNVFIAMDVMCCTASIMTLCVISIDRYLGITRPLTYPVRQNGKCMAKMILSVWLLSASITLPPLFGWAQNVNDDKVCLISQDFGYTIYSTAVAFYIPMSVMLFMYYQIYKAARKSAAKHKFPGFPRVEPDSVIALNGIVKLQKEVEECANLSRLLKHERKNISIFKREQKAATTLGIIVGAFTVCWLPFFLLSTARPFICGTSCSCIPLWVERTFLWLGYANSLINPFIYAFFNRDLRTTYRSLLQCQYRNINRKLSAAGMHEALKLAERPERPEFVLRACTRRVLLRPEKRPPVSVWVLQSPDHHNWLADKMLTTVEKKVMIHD
Chain of Tyrosine-protein kinase ZAP-70 (Homo sapiens) (P43403 whole entry): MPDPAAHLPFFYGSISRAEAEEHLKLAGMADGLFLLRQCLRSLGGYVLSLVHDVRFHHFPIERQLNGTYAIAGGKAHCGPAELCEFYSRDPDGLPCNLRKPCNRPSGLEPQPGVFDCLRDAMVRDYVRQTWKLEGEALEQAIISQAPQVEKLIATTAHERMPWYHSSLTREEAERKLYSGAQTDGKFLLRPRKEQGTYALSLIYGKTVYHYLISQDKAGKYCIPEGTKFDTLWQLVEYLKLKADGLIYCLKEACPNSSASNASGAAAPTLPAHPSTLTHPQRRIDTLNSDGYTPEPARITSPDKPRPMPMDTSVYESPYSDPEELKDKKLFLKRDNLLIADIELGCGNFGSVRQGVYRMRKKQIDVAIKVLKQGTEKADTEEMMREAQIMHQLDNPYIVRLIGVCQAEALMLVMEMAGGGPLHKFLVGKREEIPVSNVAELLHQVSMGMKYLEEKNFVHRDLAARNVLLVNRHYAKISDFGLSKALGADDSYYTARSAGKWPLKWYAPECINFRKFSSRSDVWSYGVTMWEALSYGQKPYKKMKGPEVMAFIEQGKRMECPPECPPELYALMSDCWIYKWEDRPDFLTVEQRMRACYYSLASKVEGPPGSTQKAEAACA
Chain of Calcium/calmodulin-dependent protein kinase type IV (Homo sapiens) (Q16566 whole entry): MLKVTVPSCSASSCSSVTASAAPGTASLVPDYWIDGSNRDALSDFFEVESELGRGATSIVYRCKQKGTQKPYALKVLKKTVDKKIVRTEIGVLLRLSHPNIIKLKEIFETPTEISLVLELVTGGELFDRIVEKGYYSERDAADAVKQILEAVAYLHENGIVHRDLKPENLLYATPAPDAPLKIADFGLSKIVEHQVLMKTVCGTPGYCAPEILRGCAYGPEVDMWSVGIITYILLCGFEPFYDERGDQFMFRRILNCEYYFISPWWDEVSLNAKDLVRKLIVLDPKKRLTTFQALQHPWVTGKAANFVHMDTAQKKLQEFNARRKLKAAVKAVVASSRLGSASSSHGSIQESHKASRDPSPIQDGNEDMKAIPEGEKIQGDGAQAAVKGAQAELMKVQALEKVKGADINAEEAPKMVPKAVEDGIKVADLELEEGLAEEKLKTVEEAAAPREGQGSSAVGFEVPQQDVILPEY
Chain of Sodium-dependent noradrenaline transporter (Homo sapiens) (P23975 whole entry): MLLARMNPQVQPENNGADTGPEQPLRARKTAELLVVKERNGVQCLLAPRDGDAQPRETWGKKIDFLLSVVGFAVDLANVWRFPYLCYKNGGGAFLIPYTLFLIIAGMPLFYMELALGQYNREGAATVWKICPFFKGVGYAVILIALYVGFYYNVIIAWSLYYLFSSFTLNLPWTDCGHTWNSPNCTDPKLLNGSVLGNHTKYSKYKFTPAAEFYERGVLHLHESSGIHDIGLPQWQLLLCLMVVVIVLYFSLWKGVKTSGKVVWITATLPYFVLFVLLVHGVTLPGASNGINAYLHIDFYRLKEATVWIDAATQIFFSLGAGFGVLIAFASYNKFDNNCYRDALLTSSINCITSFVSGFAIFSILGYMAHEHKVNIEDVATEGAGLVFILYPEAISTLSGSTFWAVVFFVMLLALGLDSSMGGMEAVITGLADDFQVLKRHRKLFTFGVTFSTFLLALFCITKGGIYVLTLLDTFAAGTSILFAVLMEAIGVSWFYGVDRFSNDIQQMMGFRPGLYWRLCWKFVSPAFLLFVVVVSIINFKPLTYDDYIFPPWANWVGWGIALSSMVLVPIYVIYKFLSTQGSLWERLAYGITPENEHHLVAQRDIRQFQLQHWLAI
Chain of Cyclin-dependent kinase 4 (Homo sapiens) (P11802 whole entry): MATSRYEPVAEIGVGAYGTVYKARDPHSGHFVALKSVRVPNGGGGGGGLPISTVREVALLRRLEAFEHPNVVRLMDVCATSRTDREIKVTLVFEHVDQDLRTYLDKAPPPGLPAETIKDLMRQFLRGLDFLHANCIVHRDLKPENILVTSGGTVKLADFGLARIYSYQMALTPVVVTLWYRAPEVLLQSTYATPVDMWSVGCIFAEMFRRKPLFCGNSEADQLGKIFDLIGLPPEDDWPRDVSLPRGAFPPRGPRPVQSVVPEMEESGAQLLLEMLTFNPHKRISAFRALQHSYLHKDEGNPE
Chain of Dual specificity tyrosine-phosphorylation-regulated kinase 2 (Homo sapiens) (Q92630 whole entry): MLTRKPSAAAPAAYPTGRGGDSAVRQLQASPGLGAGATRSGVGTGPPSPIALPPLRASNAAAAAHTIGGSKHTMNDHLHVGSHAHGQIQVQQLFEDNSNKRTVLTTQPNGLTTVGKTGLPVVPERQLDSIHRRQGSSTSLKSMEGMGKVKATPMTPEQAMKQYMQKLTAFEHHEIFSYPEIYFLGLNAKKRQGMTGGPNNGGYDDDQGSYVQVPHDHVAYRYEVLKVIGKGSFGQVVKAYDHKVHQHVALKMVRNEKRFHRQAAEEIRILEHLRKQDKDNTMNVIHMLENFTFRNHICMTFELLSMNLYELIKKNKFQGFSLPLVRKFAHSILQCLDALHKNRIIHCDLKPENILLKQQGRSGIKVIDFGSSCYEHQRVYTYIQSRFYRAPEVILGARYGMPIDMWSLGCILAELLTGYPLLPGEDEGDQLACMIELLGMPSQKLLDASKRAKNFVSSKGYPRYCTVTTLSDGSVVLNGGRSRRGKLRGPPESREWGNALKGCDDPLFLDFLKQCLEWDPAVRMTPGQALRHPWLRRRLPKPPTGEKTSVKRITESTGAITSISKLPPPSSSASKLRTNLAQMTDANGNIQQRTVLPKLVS
Chain of D(2) dopamine receptor (Homo sapiens) (P14416 whole entry): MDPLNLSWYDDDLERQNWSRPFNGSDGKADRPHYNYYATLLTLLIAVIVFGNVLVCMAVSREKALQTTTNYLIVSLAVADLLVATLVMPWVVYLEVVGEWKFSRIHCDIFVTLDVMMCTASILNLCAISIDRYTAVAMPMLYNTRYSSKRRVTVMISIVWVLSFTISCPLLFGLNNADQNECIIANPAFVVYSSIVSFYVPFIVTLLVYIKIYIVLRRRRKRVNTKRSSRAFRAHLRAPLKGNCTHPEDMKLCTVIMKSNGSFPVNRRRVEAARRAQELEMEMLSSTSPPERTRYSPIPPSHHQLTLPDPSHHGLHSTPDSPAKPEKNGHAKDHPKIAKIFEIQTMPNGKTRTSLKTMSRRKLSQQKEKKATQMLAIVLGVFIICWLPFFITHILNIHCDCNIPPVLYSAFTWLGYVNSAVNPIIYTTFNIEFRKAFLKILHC
Chain of Histamine H2 receptor (Homo sapiens) (P25021 whole entry): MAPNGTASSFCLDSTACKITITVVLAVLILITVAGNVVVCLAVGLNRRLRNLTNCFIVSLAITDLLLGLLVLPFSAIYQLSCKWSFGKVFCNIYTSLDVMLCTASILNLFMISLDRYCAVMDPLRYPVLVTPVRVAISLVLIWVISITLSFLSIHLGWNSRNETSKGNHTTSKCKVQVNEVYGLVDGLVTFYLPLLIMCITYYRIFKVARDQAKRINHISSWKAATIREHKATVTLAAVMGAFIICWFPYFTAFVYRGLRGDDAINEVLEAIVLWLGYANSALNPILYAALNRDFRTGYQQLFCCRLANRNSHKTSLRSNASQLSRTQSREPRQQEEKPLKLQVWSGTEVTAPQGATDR
Chain of Mitogen-activated protein kinase 14 (Homo sapiens) (Q16539 whole entry): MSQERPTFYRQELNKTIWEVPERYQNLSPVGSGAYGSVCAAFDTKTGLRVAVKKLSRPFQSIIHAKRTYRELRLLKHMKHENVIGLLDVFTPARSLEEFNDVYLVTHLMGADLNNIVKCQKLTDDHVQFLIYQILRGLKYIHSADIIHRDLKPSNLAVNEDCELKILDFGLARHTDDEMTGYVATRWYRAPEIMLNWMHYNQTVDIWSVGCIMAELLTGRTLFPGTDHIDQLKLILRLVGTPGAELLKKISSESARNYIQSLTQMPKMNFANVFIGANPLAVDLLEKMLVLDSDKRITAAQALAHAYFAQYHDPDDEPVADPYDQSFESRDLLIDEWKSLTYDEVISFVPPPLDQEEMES

**Q.** Which results are given for `COc1ccc2cc(OCC3(C(=O)O)CN(C(=O)c4ccc(F)cc4)C3)ccc2c1` [PF-04418948]?
**A.** inhibition [1]: -7%; inhibition [2]: -1%; inhibition [3]: -1%; inhibition [4]: 9%; residual activity [5]: 84%; residual activity [6]: 98%; inhibition [7]: -9%; residual activity [8]: 96%; inhibition [9]: 1%; inhibition [10]: -1%; residual activity [11]: 78%; inhibition at 10 µM (CYP2C9): 41% (not active); residual activity [12]: 99%; residual activity [13]: 88%; residual activity [14]: 55%; inhibition [15]: 6%; inhibition [16]: -2%; inhibition [17]: 3%; inhibition [18]: -2%; inhibition [19]: -2%; residual activity [20]: 87%; residual activity [21]: 90%; residual activity [22]: 91%; residual activity [23]: 94%; residual activity [24]: 78%; residual activity [25]: 90%; residual activity [26]: 85%; inhibition [27]: -9.26%; residual activity [28]: 77%; inhibition [29]: -10%; residual activity [30]: 88%; residual activity [31]: 90%; inhibition [32]: 10%; residual activity [33]: 99%; residual activity [34]: 95%; inhibition [35]: 1.07%; inhibition [36]: 1%; residual activity [37]: 84%; inhibition at 10 µM [38]: 3% (not active)
